Active and inactive are the calls of the source. The calls are words filed in the database; no cut-off is given here.
Assays:
[1] = system: SH-SY5Y; test: Neuroprotection against H2O2-induced cell death in human SH-SY5Y cells assessed as increase in cell viability preincubated for 1 hr followed by H2O2 addition and measured after 24 hrs by MTT assay; format: functional, cell-based
[2] = Anti-neuroinflammatory activity in […] cells assessed as inhibition of LPS-induced NO production preincubated for 1 hr followed by LPS stimulation measured after 24 hrs by Griess reagent based assay; format: functional, cell-based; conditions: BV-2
[3] = organism: Homo sapiens; test: Selectivity index, ratio of IC50 for recombinant human MAO-A expressed in baculovirus infected BTI insect cells to IC50 for recombinant human MAO-B expressed in baculovirus infected BTI insect cells
[4] = molecular target: T1, Amine oxidase [flavin-containing] B (Homo sapiens, UniProt P27338); test: Inhibition of recombinant human MAO-B expressed in baculovirus infected BTI insect cells using p-tyramine as substrate preincubated for 60 mins followed by substrate addition and measured after 30 mins by horse-radish peroxidase-coupled amplex red reagent-based fluorescence spectrophotometric method
T1 sequence (P27338 whole entry): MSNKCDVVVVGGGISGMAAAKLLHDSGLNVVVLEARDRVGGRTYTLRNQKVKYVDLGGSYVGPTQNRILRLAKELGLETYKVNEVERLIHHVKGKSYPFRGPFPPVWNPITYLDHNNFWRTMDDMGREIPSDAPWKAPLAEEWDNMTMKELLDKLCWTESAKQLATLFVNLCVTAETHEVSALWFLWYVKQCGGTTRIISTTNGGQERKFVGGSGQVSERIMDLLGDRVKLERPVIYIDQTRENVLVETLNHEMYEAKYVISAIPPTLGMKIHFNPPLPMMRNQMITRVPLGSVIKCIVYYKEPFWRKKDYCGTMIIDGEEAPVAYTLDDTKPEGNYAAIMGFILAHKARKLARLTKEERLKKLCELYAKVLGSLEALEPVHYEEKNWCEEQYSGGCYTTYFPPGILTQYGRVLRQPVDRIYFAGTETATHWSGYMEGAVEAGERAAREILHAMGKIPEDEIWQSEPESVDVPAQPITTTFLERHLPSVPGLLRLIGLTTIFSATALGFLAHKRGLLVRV

[5] = molecular target: T2, Amine oxidase [flavin-containing] A (Homo sapiens, UniProt P21397); test: Inhibition of recombinant human MAO-A expressed in baculovirus infected BTI insect cells using p-tyramine as substrate preincubated for 60 mins followed by substrate addition and measured after 30 mins by horse-radish peroxidase-coupled amplex red reagent-based fluorescence spectrophotometric method
T2 sequence (P21397 whole entry): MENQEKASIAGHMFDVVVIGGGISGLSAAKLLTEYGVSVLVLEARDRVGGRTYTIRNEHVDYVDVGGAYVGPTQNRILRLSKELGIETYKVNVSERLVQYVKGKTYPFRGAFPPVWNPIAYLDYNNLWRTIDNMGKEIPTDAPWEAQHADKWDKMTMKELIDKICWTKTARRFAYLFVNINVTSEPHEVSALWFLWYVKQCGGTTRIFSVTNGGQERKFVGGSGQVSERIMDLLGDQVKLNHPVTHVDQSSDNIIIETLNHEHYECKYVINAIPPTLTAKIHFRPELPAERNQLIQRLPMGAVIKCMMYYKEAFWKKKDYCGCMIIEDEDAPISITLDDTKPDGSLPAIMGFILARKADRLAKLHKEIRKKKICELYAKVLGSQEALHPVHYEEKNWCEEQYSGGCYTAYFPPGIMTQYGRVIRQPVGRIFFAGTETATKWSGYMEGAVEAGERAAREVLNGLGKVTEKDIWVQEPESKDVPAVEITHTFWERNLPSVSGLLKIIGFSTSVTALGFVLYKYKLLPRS

[6] = system: SH-SY5Y; test: Neuroprotection against L-glutamic acid-induced cell death in human SH-SY5Y cells assessed as increase in cell viability preincubated for 1 hr followed by L-glutamic acid addition and measured after 24 hrs by MTT assay; format: functional, cell-based
[7] = system: Mus musculus; test: (§1) Anti-neuroinflammatory activity in MPTP-induced C57BL/6 mouse of Parkinson's disease assessed as increase in tyrosine hydroxylase positive cells in substantia nigra at 10 mg/kg, po pretreated for 30 mins followed by MPTP challenge for 7 days and subsequent compound redosing for 5 days measured post-last dose by DAB staining based immunohistochemistry method; format: functional, organism-based
[8] = system: Mus musculus; test: (§2) Anti-parkinson's activity in MPTP-induced C57BL/6 mouse model of Parkinson's disease assessed as restoration of motor ability by measuring increase in latency to fall at 10 mg/kg, po pretreated for 30 mins followed by MPTP challenge for 7 days and subsequent compound redosing for 5 days measured post-last dose by rotarod test; format: functional, organism-based
[9] = system: Mus musculus; test: Anti-neuroinflammatory activity in C57BL/6 mouse assessed as reduction in MPTP-induced COX2 expression in mid brain at 50 mg/kg, po pretreated for 30 mins followed by MPTP challenge for 7 days and subsequent compound redosing for 5 days measured post-last dose by Western blotting analysis; format: functional, organism-based
[10] = system: Mus musculus; test: Anti-neuroinflammatory activity in po dosed MPTP-induced C57BL/6 mouse model of Parkinson's disease assessed as increase in tyrosine hydroxylase expression in mid brain pretreated for 30 mins followed by MPTP challenge for 7 days and subsequent compound redosing for 5 days measured post-last dose by DAB staining based immunohistochemistry method; format: functional, organism-based
[11] = system: Mus musculus; test: (§3) Ex vivo Inhibition of MAO-B in mid brain homogenates of MPTP-induced C57BL/6 mouse model of Parkinson's disease at 50 mg/kg, ig using p-tyramine as substrate preincubated for 60 mins followed by substrate addition and measured after 30 mins by horse-radish peroxidase-coupled/amplex red reagent-based fluorescence spectrophotometric method; format: functional, organism-based
[12] = system: Mus musculus; test: Anti-neuroinflammatory activity in C57BL/6 mouse assessed as reduction in MPTP-induced iNOS expression in mid brain at 50 mg/kg, po pretreated for 30 mins followed by MPTP challenge for 7 days and subsequent compound redosing for 5 days measured post-last dose by Western blotting analysis; format: functional, organism-based
[13] = system: Mus musculus; test: as §2, with “50” for “10”; format: functional, organism-based
[14] = system: Mus musculus; test: as §3, with “inhibition” for “Inhibition”, “MAO-A” for “MAO-B”; format: functional, organism-based
[15] = system: Mus musculus; test: as §1, with “activity in po dosed MPTP-induced C57BL/6” for “activity in MPTP-induced C57BL/6”, “substantia nigra pretreated for” for “substantia nigra at 10 mg/kg, po pretreated for”; format: functional, organism-based
[16] = system: Mus musculus; test: as §2, with “activity in po dosed MPTP-induced C57BL/6” for “activity in MPTP-induced C57BL/6”, “to fall pretreated for” for “to fall at 10 mg/kg, po pretreated for”; format: functional, organism-based

SMILES: COc1ccc2cc(C(=O)CCN(C)C)c(=O)oc2c1
- EC50 [1]: > 100 µM
- IC50 [2]: > 100 µM
- Ratio IC50 [3]: 0.36
- IC50 [4]: 21.1 µM
- IC50 [5]: 7.63 µM

SMILES: CCN(CC)CCC(=O)c1cc2ccc(O)cc2oc1=O
- IC50 [2]: 2.67 µM
- Ratio IC50 [3]: 0.96
- IC50 [4]: 94 µM
- IC50 [5]: 89.9 µM
- EC50 [6]: 13 µM

SMILES: Cc1cc(O)cc2oc(=O)c(C(=O)CCN3CCCCC3)cc12
- EC50 [1]: 83.7 µM
- IC50 [2]: 0.11 µM
- Ratio IC50 [3]: 1.14
- IC50 [4]: 119 µM
- IC50 [5]: 136 µM
- EC50 [6]: > 100 µM

SMILES: C#CCN(C)[C@H](C)Cc1ccccc1
- Activity [7]: Active
- Activity [8]: Active

SMILES: Cc1cc(O)cc2oc(=O)c(C(=O)CCN3CCOCC3)cc12
- EC50 [1]: > 100 µM
- IC50 [2]: 0.28 µM
- Ratio IC50 [3]: 2.74
- IC50 [4]: 36 µM
- IC50 [5]: 98.5 µM
- EC50 [6]: > 100 µM

SMILES: Cc1cc(O)cc2oc(=O)c(C(=O)CCN(C)C)cc12
- Activity [9]: Active
- Activity [10]: Active
- EC50 [1]: 19.7 µM
- inhibition [11]: Active
- IC50 [2]: 0.22 µM
- Ratio IC50 [3]: > 100
- IC50 [4]: 3.66 µM
- IC50 [5]: > 200 µM
- Activity [12]: Active
- Activity [13]: Active
- EC50 [6]: 25.7 µM
- inhibition [14]: inactive
- Activity [15]: Active
- Activity [16]: Dose-dependent effect

SMILES: O=C(CCN1CCCC1)c1cc2cc(Br)c(O)c(Br)c2oc1=O
- EC50 [1]: 75.1 µM
- IC50 [2]: > 100 µM
- IC50 [4]: > 200 µM
- IC50 [5]: 155 µM

SMILES: O=C(CCN1CCCC1)c1cc2ccc(O)cc2oc1=O
- IC50 [2]: 0.61 µM
- IC50 [4]: > 200 µM
- IC50 [5]: > 200 µM
- EC50 [6]: > 100 µM

SMILES: COc1ccc2cc(C(=O)CCN3CCCCC3)c(=O)oc2c1
- EC50 [1]: > 100 µM
- IC50 [2]: 0.02 µM
- Ratio IC50 [3]: 0.61
- IC50 [4]: 20.1 µM
- IC50 [5]: 12.2 µM

SMILES: Cc1cc(O)cc2oc(=O)c(C(=O)CCN3CCCC3)cc12
- IC50 [2]: > 100 µM
- Ratio IC50 [3]: 3.97
- IC50 [4]: 43.7 µM
- IC50 [5]: 173 µM
- EC50 [6]: > 100 µM

SMILES: O=C(CCN1CCOCC1)c1cc2ccc(O)cc2oc1=O
- EC50 [1]: > 100 µM
- IC50 [2]: 0.01 µM
- Ratio IC50 [3]: 0.73
- IC50 [4]: 151 µM
- IC50 [5]: 111 µM
- EC50 [6]: 22.9 µM

SMILES: CN(C)CCC(=O)c1cc2cc(Br)c(O)c(Br)c2oc1=O
- EC50 [1]: > 100 µM
- IC50 [2]: > 100 µM
- IC50 [4]: > 200 µM
- IC50 [5]: > 200 µM

SMILES: O=C(CCN1CCN(Cc2ccccc2)CC1)c1cc2ccc(O)cc2oc1=O
- EC50 [1]: 1.82 µM
- IC50 [2]: 3.64 µM
- Ratio IC50 [3]: 2.63
- IC50 [4]: 41.1 µM
- IC50 [5]: 108 µM
- EC50 [6]: > 100 µM

SMILES: O=C(CCN1CCOCC1)c1cc2cc(Br)c(O)c(Br)c2oc1=O
- EC50 [1]: > 100 µM
- IC50 [2]: 24.6 µM
- Ratio IC50 [3]: 2.42
- IC50 [4]: 14.1 µM
- IC50 [5]: 34.1 µM

SMILES: CN(C)CCC(=O)c1cc2ccc(O)cc2oc1=O
- IC50 [2]: 0.56 µM
- Ratio IC50 [3]: 1.53
- IC50 [4]: 71.4 µM
- IC50 [5]: 110 µM
- EC50 [6]: > 100 µM

SMILES: COc1ccc2cc(C(=O)CCN3CCCC3)c(=O)oc2c1
- EC50 [1]: > 100 µM
- IC50 [2]: > 100 µM
- Ratio IC50 [3]: 2.93
- IC50 [4]: 18.1 µM
- IC50 [5]: 53.1 µM

SMILES: COc1cc(/C=C/C(=O)CC(=O)/C=C/c2ccc(O)c(OC)c2)ccc1O [CURCUMIN]
- IC50 [2]: 1.58 µM

SMILES: O=C(CCN1CCCCC1)c1cc2ccc(O)cc2oc1=O
- EC50 [1]: > 100 µM
- IC50 [2]: 2.13 µM
- IC50 [4]: > 200 µM
- IC50 [5]: > 200 µM
- EC50 [6]: 45.4 µM

SMILES: COc1ccc2cc(C(=O)CCN3CCOCC3)c(=O)oc2c1
- IC50 [2]: 8.61 µM
- Ratio IC50 [3]: 0.53
- IC50 [4]: 4.62 µM
- IC50 [5]: 2.46 µM
- EC50 [6]: > 100 µM

From ChEMBL document CHEMBL4346711, “Discovery of coumarin Mannich base derivatives as multifunctional agents against monoamine oxidase B and neuroinflammation for the treatment of Parkinson's disease” (Eur J Med Chem, 2019)
